Experimental findings from US9089532B2, “Stable dosage form of phenylalanine derivatives” (Wilex AG, priority 2004, dated 2015) are described below.

What all share (format): physicochemical
Data set [1] can be described thus: pH-dependency of active ingredient breakdown at 60° C. The following applies: ethanol/water 1:1, 60° C., up to 48 h. The procedure: The pH-dependency of active ingredient breakdown (WX-UK1) was investigated at three different pH values with heat treatment at 60° C. by dissolving 2.5 mg of WX-UK1 in 1 ml of ethanol/water (1:1 vol/vol). This solution was aliquoted into three vessels. One aliquot was adjusted to pH 2 by addition of 20 μl of 1 N hydrochloric acid, a second aliquot was adjusted to pH 11 by addition of 20 μl of 2 N sodium hydroxide solution and the third aliquot was left at a neutral pH. After incubation, the solutions were analysed at defined points in time (0, 5, 12 and 48 h) by means of a stability-indicating HPLC method.

A short description of data set [2]: Earlier investigations: addition of phosphate buffer to WX-UK1 solutions.
Data set [3] is described as follows: Preliminary testing: solubility of WX-UK1 in solvents and solvent mixtures. The following applies: in polyols, for example diols, and in mixtures of polyol/alcohol and water. An excerpt: Both solvents are additionally suitable for parenteral administration of active ingredients.
FIG. 1 is a Table showing the maximum solubility of WX-UK1 in various solvents and solvent mixtures.

Data set [4] in a line: Stability study at 40° C./75% RH of the unbuffered PG/EtOH/water formulation (impurity content, pH value). Particulars: 40 mg/ml in PG/ethanol/water, stored at 40° C., 2-12 weeks. The procedure:
At the same time, the pH value of the formulation rose from 5.1 to 8.7 over a period of 12 weeks (FIG. 1).
0.4 ml of propylene glycol (PG) and 0.1 ml of ethanol were added in succession to 40 mg of WX-UK1. […] The remaining water (approx. 0.2 ml) was then added. The solution was then stored at 40° C. and the pH value and purity of the solution were in each case analysed after a period of 2, 4, 6, 8 and 12 weeks. To this end, 250 μl of the WX-UK1 solution were transferred into a 100 ml measuring flask and made up with water/acetonitrile (50:50 vol/vol) to the graduation mark (concentration: approx. 0.1 mg/ml of WX-UK1). 20 μl of this dilution were then analysed by means of a stability-indicating HPLC method analysed (see Annex). pH value-analysis of the WX-UK1 solution was carried out by means of a potentiometric method at 20-25° C.

Data set [5] is described as follows: Stability of sodium acetate-buffered solutions of various molarities at 60° C. Particulars: buffering the formulation with sodium acetate pH 5, 60° C., relative to unbuffered formulation. On the procedure: The stability study was carried out at 60° C. in order to achieve accelerated breakdown of WX-UK1 (FIG. 5). The WX-UK1 peak area percentage, determined by a stability-indicating HPLC method, was evaluated.

On to `CCOC(=O)N1CCN(C(=O)[C@H](Cc2cccc(C(=N)N)c2)NS(=O)(=O)c2c(C(C)C)cc(C(C)C)cc2C(C)C)CC1` [WX-UK1, Nα-(2,4,6-triisopropylphenylsulfonyl)-3-amidino-(L)-phenylalanine-4-ethoxycarbonylpiperazide], for which the “stability (breakdown, HPLC)” value in data set [1] (acidic pH (pH 2)) was “remained stable”; in data set [1] (neutral or basic pH (pH 11)), “moderate to rapid breakdown”. The precipitate formation entry in data set [2] is “formation of a precipitate”. Further, the solubility entry in data set [3] was “very good solubility”. For the same compound, the “breakdown in relation to pH value of the solution” value in data set [4] is recorded as “the higher is the pH value of the solution, the faster WX-UK1 breaks down”. Also, the rate of breakdown entry in data set [5] is recorded as “considerable reduction in the rate of breakdown”.
